Data reported in patent US8298781B2, “Compositions and methods for characterizing and regulating olfactory sensation” (Duke University, priority 2007, dated 2012).

Tests used:
Assay type in all cases: in vivo
[1] = tested on: human subjects; assay: Human olfactory psychophysics: valence rating by OR7D4 genotype; conditions: 7-point scale, two concentrations pooled
Description: (§1) Human olfactory psychophysics. All human subjects gave informed consent to participate in this study and were tested in a well-ventilated room. Normal human subjects (n=412; 218 female, 194 male; median age 34, age range 19-75) were pre-screened to exclude pregnant women and those with medical conditions causing general impairment of the sense of smell. All subjects completed two replicates of the test separated by at least 4 days. Odors were presented in amber vials as previously described (see, e.g., Keller, A., et al., Nat Neurosci 7, 337-338 (2004); herein incorporated by reference in its entirety) using bar-coded symbols to ensure that subjects were blind to the identity of all odors. The intensity and valence of 66 odors at two concentrations (“high” and “low”) and two solvents was rated using a 7-point scale. Thresholds were calculated using the single staircase method with seven reversals (see, e.g., Doty, R. L., et al., Chem Senses 20, 645-656 (1995); Doty, R. L. & Laing, D. G. in Handbook of Olfaction and Gustation (ed. Doty, R. L.) pp. 203-228 (Marcel Dekker, Inc., New York, 2003); each of which are herein incorporated by reference in their entireties). Threshold tests included both steroids as binary dilutions from […] (binary dilution 6) to 1: 134,217,728 (binary dilution 27). Subjects who could not reliably distinguish a 1:64 dilution of androstenone and androstadienone from solvent were operationally defined as anosmic to these odorous steroids, although it could not be excluded that these subjects could detect higher concentrations of these steroids (see, e.g., Bremner, E. A., et al., Chem Senses 28, 423-432 (2003); herein incorporated by reference in its entirety). Odor profiling used the method established by Dravnieks, et al. (see, e.g., Dravnieks, A., et al., Science 218, 799-801 (1982); herein incorporated by reference in its entirety).
(§2) Stimuli for olfactory psychophysics. All odors were presented as one ml of an odor dilution in either propylene glycol or paraffin oil in 20 ml amber glass vials. All of these compounds were used in the intensity and valence rating portion of the smell test.
(§3) Olfactory ratings. The intensity and valence of 66 odors were rated at two different concentrations (high and low) and the intensity and valence of the two solvents (paraffin oil and propylene glycol) was rated three times. Prior to these ratings, six stimuli that represented the spectrum of intensity and valence of the stimuli used in the study were presented to allow the subjects to calibrate the usage of the scale. The subjects were unaware that the six first stimuli served that purpose. After the rating of the 66 odors at two concentrations and the rating of the solvents, 15 stimuli that were presented earlier in the experiment were repeated to test for the effect of adaptation and olfactory fatigue on the ratings. The subjects were not aware that the last 15 stimuli served this purpose. These 15 stimuli and the six first stimuli were not included in the analysis presented here. […] The 15 control stimuli and their concentrations were as follows:
(§4) In addition there was a button on the screen labeled “I can't smell anything” and a button labeled “Don't Know”. If the “Don't Know” button was pressed, no rating was recorded. If the “I can't smell anything” button was pressed, a 0 was recorded for the intensity rating and no rating was recorded for the valence rating. The other ratings were transformed according to the following scheme:
(§5) • Extremely Weak=1 • Very Weak=2 • Slightly Weak=3 • Neither Weak nor Strong=4 • Slightly Strong=5 • Very Strong=6 • Extremely Strong=7 Valence Rating • Extremely Unpleasant=1 • Very Unpleasant=2 • Slightly Unpleasant=3 • Neither Unpleasant nor Pleasant=4 • Slightly Pleasant=5 • Very Pleasant=6 • Extremely Pleasant=7
(§6) Averages for the ratings of the different genotypes were calculated. […]

[2] = tested on: human subjects; assay: Human olfactory psychophysics: odor profiling with 146 descriptors; conditions: vanillin 1/200
Description: Human olfactory psychophysics. All human subjects gave informed consent to participate in this study and were tested in a well-ventilated room. Normal human subjects (n=412; 218 female, 194 male; median age 34, age range 19-75) were pre-screened to exclude pregnant women and those with medical conditions causing general impairment of the sense of smell. All subjects completed two replicates of the test separated by at least 4 days. Odors were presented in amber vials as previously described (see, e.g., Keller, A., et al., Nat Neurosci 7, 337-338 (2004); herein incorporated by reference in its entirety) using bar-coded symbols to ensure that subjects were blind to the identity of all odors. The intensity and valence of 66 odors at two concentrations (“high” and “low”) and two solvents was rated using a 7-point scale. Thresholds were calculated using the single staircase method with seven reversals (see, e.g., Doty, R. L., et al., Chem Senses 20, 645-656 (1995); Doty, R. L. & Laing, D. G. in Handbook of Olfaction and Gustation (ed. Doty, R. L.) pp. 203-228 (Marcel Dekker, Inc., New York, 2003); each of which are herein incorporated by reference in their entireties). Threshold tests included both steroids as binary dilutions from […] (binary dilution 6) to 1: 134,217,728 (binary dilution 27). […]
Assigning descriptors to odors. Subjects assessed the quality of six odors using an odor profiling method that has shown to produce stable profiles of odorants. […] Odor profiling typically took five minutes per odorant and was performed as a computer-controlled selftest in which the subject's responses were directly recorded. […] The descriptors used to describe the other four odors (vanillin, pentadecalactone, androstenone, and propylene glycol) were evaluated. […]

[3] = tested on: human subjects; assay: Human olfactory psychophysics: intensity rating by OR7D4 genotype; conditions: 7-point scale, two concentrations pooled; N=100 RT/WM, N=255 RT/RT
Description: as §1, §2, §3, §4, §5, §6

Structure (SMILES)	valence rating, OR7D4 RT/WM vs RT/RT subjects [1]	use of two descriptors, OR7D4 RT/WM vs RT/RT subjects [2]	intensity rating, OR7D4 RT/WM vs RT/RT subjects [3]
COc1cc(C=O)ccc1O [vanillin]	less pronounced—but statistically significant—difference	comparable increase	–
O=C1CCCCCCCCCCCCCCO1 [pentadecalactone]	–	–	not affected
CC1COCc2cc3c(cc21)C(C)(C)C(C)C3(C)C (centres unmarked) [galaxolide]	–	–	not affected
CCCCCCCCOC(C)=O [octyl acetate]	less pronounced—but statistically significant—difference	–	–
